Laboratory results reported in ChEMBL document CHEMBL4483862, “Open-source discovery of chemical leads for next-generation chemoprotective antimalarials” (2018).

Test system: Plasmodium berghei
Experiment: Luciferase/luciferin-expressing antifolate-resistant parasites were used to infect a culture of HepG2 cells that were pre-incubated with compounds. Infected hepatocytes emit light due to the luciferase reaction. Assay results are presented as the percent inhibition of light emission compared to control. […]
Format: functional
Conditions: sporozoite; for IC90: read-out: LUCIFERASE INFECTION ASSAY - IC90
[1] = read-out: LUCIFERASE INFECTION ASSAY - IC50

SMILES	IC90	IC50 [1]	also measured
COc1ccc(C(C)=O)cc1COc1cccc(C(=O)NCc2ccccc2)c1	9.35 µM	–	IC50 (HEPG2TOX_HILL_SLOPE 15.6, HEPG2TOX_R_SQUARED 0.727, PBLUC_HILL_SLOPE 15.6, PBLUC_R_SQUARED 0.0647, read-out: LUCIFERASE INFECTION ASSAY - IC50): 8.12 µM
CC(C)N1C(=O)N(CCc2ccccc2)C2(CCN(Cc3ccccc3)CC2)C1=O	> 8.14 µM	–	IC50 (HEPG2TOX_HILL_SLOPE 15.6, HEPG2TOX_R_SQUARED 0.916, PBLUC_HILL_SLOPE 3.95, PBLUC_R_SQUARED 0.588, read-out: LUCIFERASE INFECTION ASSAY - IC50): 4.99 µM
Cc1ccc(NC(=O)Nc2ccc3nc(Cc4ccccc4)nn3c2)cc1	2.11 µM	–	IC50 (HEPG2TOX_HILL_SLOPE 3.07, HEPG2TOX_R_SQUARED 0.95, PBLUC_HILL_SLOPE 55.2, PBLUC_R_SQUARED 0.375, read-out: LUCIFERASE INFECTION ASSAY - IC50): 2.02 µM
CNc1nc2cnc(-c3cccc4ccccc34)cc2n1-c1ccccc1	> 10 µM	–	IC50 (PBLUC_HILL_SLOPE 1.54, PBLUC_R_SQUARED 0.64, read-out: LUCIFERASE INFECTION ASSAY - IC50): 4.99 µM
Cc1onc(-c2c(Cl)cccc2Cl)c1NC(=O)Nc1ccc(Cl)cc1	2.89 µM	0.334 µM	–
O=C(COc1ccccc1)Nc1nc2ccccn2c1C(=O)NC1CCCCC1	6.99 µM	–	IC50 (HEPG2TOX_HILL_SLOPE 7.86, HEPG2TOX_R_SQUARED 0.377, PBLUC_HILL_SLOPE 5.91, PBLUC_R_SQUARED 0.352, read-out: LUCIFERASE INFECTION ASSAY - IC50): 4.82 µM
CNc1ncnc(NNC(=O)Nc2ccccc2)c1[N+](=O)[O-]	> 10.9 µM	–	IC50 (HEPG2TOX_HILL_SLOPE 0.255, HEPG2TOX_R_SQUARED 0.589, PBLUC_HILL_SLOPE 1.34, PBLUC_R_SQUARED 0.392, read-out: LUCIFERASE INFECTION ASSAY - IC50): 6.01 µM
CC(=O)c1cccc(-c2cnc3ccc(-c4cccc(C(N)=O)c4)nn23)c1	0.628 µM	–	IC50 (HEPG2TOX_HILL_SLOPE 1.55, HEPG2TOX_R_SQUARED 0.943, PBLUC_HILL_SLOPE 2.62, PBLUC_R_SQUARED 0.854, read-out: LUCIFERASE INFECTION ASSAY - IC50): 0.271 µM
CCc1c(C)[nH]c2cc(-c3ccc(OC)cc3)nn2c1=O	3.98 µM	–	IC50 (PBLUC_HILL_SLOPE 29.9, PBLUC_R_SQUARED 0.167, read-out: LUCIFERASE INFECTION ASSAY - IC50): 3.7 µM
CC1CCCCC1NC(=O)/C(C#N)=C/c1ccc(OC(F)F)cc1OC(F)F (configuration not stated)	> 10 µM	> 10 µM	–
FC(F)(F)Oc1cccc(-c2cnc3sc(NCCc4ccncc4)nn23)c1	> 8.14 µM	–	IC50 (HEPG2TOX_HILL_SLOPE 1.76, HEPG2TOX_R_SQUARED 0.88, read-out: LUCIFERASE INFECTION ASSAY - IC50): > 8.14 µM
C=CCSc1nnc(-c2ccco2)n1-c1ccc(OCc2ccccc2)cc1	> 8.47 µM	> 8.47 µM	–
NC(=O)c1ccsc1NC(=O)CN1CCC(c2c[nH]c3ccccc23)CC1	> 10 µM	–	IC50 (FFLUC_HILL_SLOPE 7.73, FFLUC_R_SQUARED 0.279, read-out: LUCIFERASE INFECTION ASSAY - IC50): > 10 µM
COc1cccc(Nc2nccc3[nH]c(-c4cccc(F)c4)cc23)c1	2.27 µM	–	IC50 (HEPG2TOX_HILL_SLOPE 2.76, HEPG2TOX_R_SQUARED 0.828, PBLUC_HILL_SLOPE 2.74, PBLUC_R_SQUARED 0.773, read-out: LUCIFERASE INFECTION ASSAY - IC50): 1.02 µM
CCOC(=O)c1c(NC(=O)CSc2nnc(N)[nH]2)sc(Br)c1-c1ccccc1	> 10 µM	6.28 µM	–
CCOC(=O)c1sc(NC(=O)c2cccc(S(=O)(=O)N(C)c3ccc(OC)cc3)c2)cc1C	9.74 µM	–	IC50 (FFLUC_HILL_SLOPE 3.21, FFLUC_R_SQUARED 0.745, HEPG2TOX_HILL_SLOPE 15.7, HEPG2TOX_R_SQUARED 0.428, PBLUC_HILL_SLOPE 5.31, PBLUC_R_SQUARED 0.793, read-out: LUCIFERASE INFECTION ASSAY - IC50): 6.44 µM
c1ccc(-c2csc3ncnc(Sc4ccc5nnnn5n4)c23)cc1	> 10 µM	–	IC50 (HEPG2TOX_HILL_SLOPE 2.04, HEPG2TOX_R_SQUARED 0.855, PBLUC_HILL_SLOPE 0.945, PBLUC_R_SQUARED 0.512, read-out: LUCIFERASE INFECTION ASSAY - IC50): 7.55 µM
Cc1cc(-c2cn3c(-c4ccc(CO)cc4)cnc3cn2)cc(C)c1O	4.31 µM	–	IC50 (HEPG2TOX_HILL_SLOPE 1.62, HEPG2TOX_R_SQUARED 0.965, PBLUC_HILL_SLOPE 8.31, PBLUC_R_SQUARED 0.637, read-out: LUCIFERASE INFECTION ASSAY - IC50): 3.31 µM
O=C(Nc1ccc2c(c1)OCO2)c1csc(C(O)c2cccc(C(F)(F)F)c2)n1 (configuration not stated)	> 10 µM	> 10 µM	–
C(=C\c1nc2ccccc2s1)/c1ccc(CN2CCCCC2)cc1	2.91 µM	–	IC50 (PBLUC_HILL_SLOPE 1.51, PBLUC_R_SQUARED 0.817, read-out: LUCIFERASE INFECTION ASSAY - IC50): 0.679 µM
CCc1nnc(Sc2ncnc3ccsc23)[nH]1	> 10 µM	> 10 µM	–

SMILES	IC90	IC50 [1]	also measured
CCOC(=O)c1c(C)[nH]c(N=Nc2ccc3c(c2)OCO3)c1C	> 10 µM	9.43 µM	–
CC(C)c1ccc2c(c1)/C(=N/NC(=S)NCCc1ccccc1)C(=O)N2	8.12 µM	–	IC50 (FFLUC_HILL_SLOPE 19.2, FFLUC_R_SQUARED 0.695, HEPG2TOX_HILL_SLOPE 7.84, HEPG2TOX_R_SQUARED 0.253, PBLUC_HILL_SLOPE 4.58, PBLUC_R_SQUARED 0.343, read-out: LUCIFERASE INFECTION ASSAY - IC50): 5.02 µM
Cc1cccc(N2CCN(C(=O)c3cccc(OCc4c(C)noc4C)c3)CC2)c1C	> 10 µM	–	IC50 (HEPG2TOX_HILL_SLOPE 2.27, HEPG2TOX_R_SQUARED 0.832, PBLUC_HILL_SLOPE 9.75, PBLUC_R_SQUARED 0.237, read-out: LUCIFERASE INFECTION ASSAY - IC50): 9.51 µM
Cc1cc(C(=O)Cn2c(Cl)nc3c2c(=O)n(C)c(=O)n3C)c(C)n1-c1ccc2c(c1)OCCO2	> 10 µM	–	IC50 (HEPG2TOX_HILL_SLOPE 4.07, HEPG2TOX_R_SQUARED 0.354, PBLUC_HILL_SLOPE 24.1, PBLUC_R_SQUARED 0.351, read-out: LUCIFERASE INFECTION ASSAY - IC50): 9.79 µM
O=S(=O)(Oc1ccc(Cl)cc1)c1cc(S(=O)(=O)Oc2ccc(Cl)cc2)c(Cl)s1	> 6.6 µM	> 6.6 µM	–
CC(=C(C#N)C#N)c1ccc2c(c1)OCCO2	> 10 µM	> 10 µM	–
COc1ccc(-c2cc3[nH]c(NCc4ccccc4)nc3cn2)cc1OC	5.34 µM	–	IC50 (HEPG2TOX_HILL_SLOPE 12.7, HEPG2TOX_R_SQUARED 0.819, PBLUC_HILL_SLOPE 80.4, PBLUC_R_SQUARED 0.69, read-out: LUCIFERASE INFECTION ASSAY - IC50): 5.2 µM
CCC(C)(C)NS(=O)(=O)c1ccc(C(C)(C)C)cc1	> 10 µM	–	IC50 (PBLUC_HILL_SLOPE 1.46, PBLUC_R_SQUARED 0.189, read-out: LUCIFERASE INFECTION ASSAY - IC50): > 10 µM
COC(=O)c1sccc1Oc1ccc(C(F)(F)F)cc1NS(=O)(=O)c1cc(C(F)(F)F)cc(C(F)(F)F)c1	3.04 µM	–	IC50 (HEPG2TOX_HILL_SLOPE 17.5, HEPG2TOX_R_SQUARED 0.823, PBLUC_HILL_SLOPE 4.85, PBLUC_R_SQUARED 0.307, read-out: LUCIFERASE INFECTION ASSAY - IC50): 1.93 µM
COc1ccc2ccccc2c1/C=N/Nc1ncc(C(F)(F)F)cc1Cl	> 10 µM	–	IC50 (HEPG2TOX_HILL_SLOPE 1.11, HEPG2TOX_R_SQUARED 0.987, read-out: LUCIFERASE INFECTION ASSAY - IC50): > 10 µM
COc1ccc(C2CC(C)=NN2c2nc(-c3ccc(F)cc3)cs2)cc1OC (configuration not stated)	> 8.3 µM	–	IC50 (PBLUC_HILL_SLOPE 2.46, PBLUC_R_SQUARED 0.655, read-out: LUCIFERASE INFECTION ASSAY - IC50): 4.62 µM
O=C1CC(c2ccc(Cl)cc2)Cc2c1cnn2-c1ccc(Cl)cc1 (configuration not stated)	> 9.24 µM	–	IC50 (HEPG2TOX_HILL_SLOPE 2.3, HEPG2TOX_R_SQUARED 0.887, PBLUC_HILL_SLOPE 1.56, PBLUC_R_SQUARED 0.715, read-out: LUCIFERASE INFECTION ASSAY - IC50): 2.9 µM
CCCOc1ccc(C(F)(F)F)cc1NC(=O)c1nc2nccc(C)n2n1	3 µM	–	IC50 (PBLUC_HILL_SLOPE 0.895, PBLUC_R_SQUARED 0.844, read-out: LUCIFERASE INFECTION ASSAY - IC50): 0.258 µM
COC(=O)C(C(=O)CSc1nnc(-c2ccc(C(C)(C)C)cc2)n1C)=C1Nc2ccccc2N1	> 10 µM	> 10 µM	–
CCn1c2ccccc2c2cc(CN(C)C(=O)Cn3nnc4ccccc43)ccc21	2.08 µM	–	IC50 (HEPG2TOX_HILL_SLOPE 27.9, HEPG2TOX_R_SQUARED 0.506, PBLUC_HILL_SLOPE 3.75, PBLUC_R_SQUARED 0.455, read-out: LUCIFERASE INFECTION ASSAY - IC50): 1.16 µM
O=S(=O)(c1ccc(Cl)cc1)c1nc(Nc2ccccc2)sc1Cl	> 10 µM	–	IC50 (HEPG2TOX_HILL_SLOPE 3.54, HEPG2TOX_R_SQUARED 0.784, PBLUC_HILL_SLOPE 12.5, PBLUC_R_SQUARED 0.109, read-out: LUCIFERASE INFECTION ASSAY - IC50): 9.24 µM
O=C(COC(=O)c1ccc2ccccc2n1)NCCc1ccccc1	> 10 µM	> 10 µM	–
COc1cccc(/C=C2\Oc3cc(O)cc(C)c3C2=O)c1	> 11.7 µM	> 11.7 µM	–
C/N=c1\scc(-c2ccccc2Br)n1/N=C/c1ccc[nH]1	> 10 µM	–	IC50 (PBLUC_HILL_SLOPE 15, PBLUC_R_SQUARED 0.188, read-out: LUCIFERASE INFECTION ASSAY - IC50): 9.68 µM
CCOC(=O)C1=C(Nc2ccc(OS(=O)(=O)c3ccc(Cl)cc3)cc2)C(=O)N(C(C)(C)C)C1	> 6.69 µM	> 6.69 µM	–
